Results as given in the supplement of paper PMC10307832.

Assays:
Assay in all cases: relative viability (nuclei count vs DMSO), 5 days (fraction); higher = more cells survive
[1] = compound: CC1=C(C(=O)N2C=CSC2=N1)CCN3CCC(=C(C4=CC=CC=C4)C5=CC=C(C=C5)F)CC3 + CC(=O)c1c(C)c2cnc(Nc3ccc(N4CCNCC4)cn3)nc2n(C2CCCC2)c1=O [Palbociclib] (partner 0.5 µM)
Procedure, shortened: (§1)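 The day after seeding in 1536-well plates, lung cancer cell lines were treated by pin tool with a single drug, or with a fixed anchor-drug dose together with five library-drug doses (not always all listed) in √10 steps. After 5 days, a combined fix-and-stain solution (final 0.05% Triton X-100, 1% formaldehyde, 1 ug/ml Hoechst) was added. Nuclei counted on 4× images gave relative viability as treated counts over vehicle counts, reported as the median of duplicate plates.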

[2] = compound: CC1=C(C(=O)N2C=CSC2=N1)CCN3CCC(=C(C4=CC=CC=C4)C5=CC=C(C=C5)F)CC3 + C[C@@H](Oc1cc(-c2cnn(C3CCNCC3)c2)cnc1N)c1c(Cl)ccc(F)c1Cl [Crizotinib] (partner 1 µM)
Procedure, shortened: as §1

[3] = compound: CC1=C(C(=O)N2C=CSC2=N1)CCN3CCC(=C(C4=CC=CC=C4)C5=CC=C(C=C5)F)CC3 + NC(=O)Nc1cc(-c2cccc(F)c2)sc1C(=O)N[C@H]1CCCNC1 [AZD7762] (partner 0.2 µM)
Procedure, shortened: as §1

[4] = compound: CC1=C(C(=O)N2C=CSC2=N1)CCN3CCC(=C(C4=CC=CC=C4)C5=CC=C(C=C5)F)CC3 + O=C(CCCCCCC(=O)Nc1ccccc1)NO [Vorinostat] (partner 1 µM)
Procedure, shortened: as §1

Cell Line | relative viability ([1]; first compound 0.08 µM) | relative viability ([1]; first compound 0.253 µM) | relative viability ([1]; first compound 0.8 µM) | relative viability ([1]; first compound 2.53 µM) | relative viability ([1]; first compound 8 µM) | relative viability ([2]; first compound 0.08 µM) | relative viability ([2]; first compound 0.253 µM) | relative viability ([2]; first compound 0.8 µM) | relative viability ([2]; first compound 2.53 µM) | relative viability ([2]; first compound 8 µM) | relative viability ([3]; first compound 0.08 µM) | relative viability ([3]; first compound 0.253 µM) | relative viability ([3]; first compound 0.8 µM) | relative viability ([3]; first compound 2.53 µM) | relative viability ([3]; first compound 8 µM) | relative viability ([4]; first compound 0.08 µM) | relative viability ([4]; first compound 0.253 µM) | relative viability ([4]; first compound 0.8 µM) | relative viability ([4]; first compound 2.53 µM) | relative viability ([4]; first compound 8 µM)
HOP-62 | 0.439 | 0.479 | 0.457 | 0.411 | 0.288 | 1.01 | 0.939 | 0.744 | 0.701 | 0.442 | 0.445 | 0.51 | 0.522 | 0.534 | 0.323 | 0.522 | 0.628 | 0.552 | 0.468 | 0.323
LC-2-ad | 0.463 | 0.459 | 0.475 | 0.473 | 0.458 | 0.46 | 0.342 | 0.415 | 0.522 | 0.475 | 0.777 | 0.725 | 0.866 | 0.966 | 0.613 | 0.661 | 0.517 | 0.771 | 0.748 | 0.53
LCLC-97TM1 | 0.255 | 0.217 | 0.284 | 0.283 | 0.205 | 0.453 | 0.367 | 0.307 | 0.263 | 0.343 | 0.348 | 0.246 | 0.288 | 0.285 | 0.228 | 0.521 | 0.831 | 0.754 | 0.734 | 0.415
LCLC-103H | 0.523 | 0.495 | 0.491 | 0.504 | 0.453 | 1.05 | 1.06 | 1.04 | 0.947 | 0.836 | 0.923 | 0.766 | 0.781 | 0.822 | 0.655 | 0.891 | 0.784 | 0.76 | 0.75 | 0.709
LK-2 | 0.766 | 0.607 | 0.822 | 0.791 | 0.575 | 0.291 | 0.234 | 0.202 | 0.293 | 0.29 | 0.496 | 0.304 | 0.56 | 0.349 | 0.289 | 0.266 | 0.233 | 0.333 | 0.319 | 0.199
LOU-NH91 | 0.501 | 0.59 | 0.543 | 0.547 | 0.536 | 0.701 | 0.747 | 0.715 | 0.772 | 0.726 | 0.763 | 0.714 | 0.833 | 0.84 | 0.691 | 0.973 | 0.832 | 0.856 | 0.948 | 0.776
LU99A | 0.383 | 0.367 | 0.416 | 0.387 | 0.447 | 0.602 | 0.636 | 0.558 | 0.625 | 0.444 | 0.345 | 0.367 | 0.403 | 0.398 | 0.294 | 0.433 | 0.418 | 0.381 | 0.525 | 0.207
LXF-289 | 0.595 | 0.666 | 0.604 | 0.599 | 0.469 | 0.911 | 0.93 | 0.891 | 0.797 | 0.773 | 0.789 | 1.22 | 1.14 | 1.13 | 0.515 | 0.527 | 0.813 | 0.75 | 0.738 | 0.613
NCI-H23 | 0.542 | 0.492 | 0.463 | 0.568 | 0.403 | 0.467 | 0.505 | 0.454 | 0.372 | 0.404 | 0.279 | 0.269 | 0.234 | 0.248 | 0.229 | 0.665 | 0.564 | 0.473 | 0.572 | 0.32
NCI-H322M | 0.552 | 0.492 | 0.479 | 0.504 | 0.524 | 0.732 | 0.948 | 0.878 | 0.696 | 0.834 | 0.601 | 0.606 | 0.563 | 0.516 | 0.543 | 0.898 | 0.845 | 0.862 | 0.953 | 0.943
NCI-H358 | 0.138 | 0.136 | 0.145 | 0.162 | 0.128 | 0.455 | 0.327 | 0.413 | 0.548 | 0.609 | 0.555 | 0.487 | – | 0.462 | 0.477 | 0.687 | 0.753 | 0.808 | 0.885 | 0.441
NCI-H441 | 0.219 | 0.196 | 0.2 | 0.208 | 0.234 | – | 0.866 | 0.773 | 0.872 | 0.549 | 0.859 | 1.12 | 1.23 | 1.07 | 0.671 | 0.998 | 0.628 | 0.765 | 1.05 | 0.61
NCI-H460 | 0.187 | 0.151 | 0.203 | 0.0978 | 0.13 | 0.597 | 1.16 | 1.09 | 0.794 | 0.188 | 0.769 | 0.604 | 0.712 | 0.6 | 0.482 | 0.516 | 0.352 | 1.05 | 1.22 | 0.261
NCI-H647 | 0.461 | 0.425 | 0.298 | 0.453 | 0.153 | 1.09 | 1.61 | 1.01 | 1.34 | 0.476 | 0.558 | 0.449 | 0.37 | 0.426 | 0.234 | 0.681 | 0.574 | 0.603 | 0.514 | 0.333
NCI-H650 | 0.322 | 0.348 | 0.322 | 0.32 | 0.334 | – | 0.791 | 0.377 | 0.718 | 0.608 | 1.07 | 0.998 | 0.94 | 1.04 | 0.805 | 0.731 | 0.395 | 0.482 | 0.486 | 0.369
NCI-H727 | 0.582 | 0.547 | 0.577 | 0.665 | 0.701 | 0.846 | 0.934 | 0.741 | 0.948 | 0.59 | 0.561 | 0.744 | 0.715 | 0.575 | 0.553 | 1.08 | 1.3 | 1.16 | 1.13 | 1.07
